Measurements as given in ChEMBL document CHEMBL6177994 (J Med Chem, 2025).
The source made the active and inactive calls. No cut-off for these calls is given here.

Assays:
[1] = test system: Protein cereblon/GTPase KRas (Homo sapiens), P01116+Q96SW2 [G12D]; experiment: PROTAC activity at CRBN/KRAS G12D mutant in human ASPC1 cells assessed as induction of KRAS G12D mutant degradation at 5 nM measured after 24 hrs by immunoblot analysis relative to control; format: cell-based
[2] = test system: Protein cereblon/GTPase KRas (Homo sapiens), P01116+Q96SW2 [G12D]; experiment: PROTAC activity at CRBN/KRAS G12D mutant in human ASPC1 cells assessed as induction of KRAS G12D mutant degradation at 1 nM measured up to 36 hrs by immunoblot analysis; format: cell-based
[3] = Inhibition of ERK phosphorylation in human PK-59 cells harbouring KRAS G12D mutant measured after 24 hrs; format: cell-based; details: PK-59, 24 h
[4] = target: Protein cereblon/GTPase KRas (Homo sapiens) (UniProt P01116+Q96SW2); experiment: PROTAC activity at CRBN/KRAS in human MKN-1 cells assessed as induction of KRAS degradation 1 nM measured after 24 hrs by immunoblot analysis; format: cell-based
[5] = target: Protein cereblon/GTPase HRas (Homo sapiens) (UniProt P01112+Q96SW2); experiment: PROTAC activity at CRBN/HRAS in human MKN-1 cells assessed as […] degradation 0.061 to 1000 nM measured after 24 hrs by immunoblot analysis; format: cell-based; details: dose 0.061-1000 nM
ASPC1 [6] = experiment: Effect on GSPT1 level in human ASPC1 cells at 10 nM measured after 8 hrs by Western blot analysis; format: functional, cell-based
ASPC1 [7] = experiment: Potency index , ratio of MRTX1133 IC50 to test compound IC50 for antiproliferative activity against human ASPC1 cells assessed as inhibition of cell growth measured after 72 hrs by Cell titer glo method; format: functional
SNU-407 = experiment: Antiproliferative activity against human SNU-407 cells harbouring KRAS G12D mutant assessed as inhibition of cell growth measured after 72 hrs by Cell titer glo method; format: functional, cell-based
[8] = test system: Protein cereblon/GTPase KRas (Homo sapiens), P01116+Q96SW2 [G12D]; experiment: PROTAC activity at CRBN/KRAS G12D mutant in human ASPC1 cells assessed as induction of KRAS G12D mutant degradation at 5 nM preincubated with CRBN ligand followed by compound addition and measured after 24 hrs by Western blot analysis; format: cell-based
[9] = Antitumor activity against human PK-59 cells xenografted in female Balb/c nude mouse model assessed as tumor growth inhibition at 0.3 mg/kg, iv QW measured after 28 days relative to control; format: functional; details: PK-59, 672 h, time 28 day, read-out: TGI
[10] = Antitumor activity against human PK-59 cells xenografted in female Balb/c nude mouse model assessed as tumor growth inhibition at 1 mg/kg, iv QW measured after 28 days relative to control; format: functional; details: PK-59, 672 h, time 28 day, read-out: TGI
[11] = Antitumor activity against human PK-59 cells xenografted in female Balb/c nude mouse model assessed as tumor growth inhibition at 3 mg/kg, iv QW measured after 28 days relative to control; format: functional; details: PK-59, 672 h, time 28 day, read-out: TGI
[12] = Toxicity in female Balb/c nude mouse xenografted with human PK-59 cells assessed as change in body weight at 0.1 to 3 mg/kg, iv QW measured after 28 days; format: organism-based; details: in vivo, 672 h, dose 0.1-3 mg/kg, time 28 day
[13] = Antitumor activity against human GP2d cells xenografted in female Balb/c nude mouse model assessed as tumor growth inhibition at 1 mg/kg, iv QW measured after 28 days relative to control; format: functional; details: 672 h, time 28 day, read-out: TGI
[14] = Toxicity in female Balb/c nude mouse xenografted with human GP2d cells assessed as drug tolerance at 1 to 10 mg/kg, iv QW measured after 28 days; format: organism-based; details: in vivo, 672 h, dose 1-10 mg/kg, time 28 day
[15] = Toxicity in female Balb/c nude mouse xenografted with human GP2d cells assessed as drug tolerance at 1 to 10 mg/kg, iv Q2W measured after 28 days; format: organism-based; details: in vivo, 672 h, dose 1-10 mg/kg, time 28 day
[16] = Drug concentration in male Balb/c nude mouse plasma xenografted with human PK-59 cells at 10 mg/kg, iv administered as single dose measured after 6 hrs by LC-MS/MS analysis; format: ADME, organism-based
[17] = test system: Protein cereblon/GTPase KRas (Homo sapiens), P01116+Q96SW2 [G12D]; experiment: In vivo PROTAC activity at CRBN/KRAS G12D mutant in male Balb/c nude mouse xenografted with human PK-59 cells assessed as degradation of KRAS G12D mutant at 10 mg/kg, iv measured up to 168 hrs relative to control; format: functional, organism-based
[18] = test system: Protein cereblon/GTPase KRas (Homo sapiens), P01116+Q96SW2 [G12D]; experiment: In vivo PROTAC activity at CRBN/KRAS G12D mutant in male Balb/c nude mouse xenografted with human PK-59 cells assessed as reduction in DUSP4 level in tumor at 10 mg/kg, iv measured up to 168 hrs relative to control; format: functional, organism-based; set-up: scale not given: the % may be the effect or the level left
[19] = test system: Protein cereblon/GTPase KRas (Homo sapiens), P01116+Q96SW2 [G12D]; experiment: In vivo PROTAC activity at CRBN/KRAS G12D mutant in male Balb/c nude mouse xenografted with human PK-59 cells assessed as increase in cleaved caspase 7 level at 10 mg/kg, iv measured after 24 hrs relative to control; format: functional, organism-based
[20] = Drug concentration in male Balb/c nude mouse tumor xenografted with human PK-59 cells at 10 mg/kg, iv administered as single dose measured after 168 hrs by LC-MS/MS analysis; format: ADME, organism-based, Neoplasm; details: read-out: Ct
[21] = Metabolic stability in mouse liver microsomes assessed as half life at 1 uM preincubated for 3 mins with NADPH and measured up to 60 mins by LC-MS/MS analysis; format: ADME, Microsome; details: time < 63 min
[22] = Metabolic stability in dog liver microsomes assessed as half life at 1 uM preincubated for 3 mins with NADPH and measured up to 60 mins by LC-MS/MS analysis; format: ADME, Canis lupus familiaris, Microsome; details: time < 63 min
[23] = Metabolic stability in monkey liver microsomes assessed as half life at 1 uM preincubated for 3 mins with NADPH and measured up to 60 mins by LC-MS/MS analysis; format: ADME, Macaca mulatta, Microsome; details: rhesus monkey, time < 63 min
[24] = Metabolic stability in human liver microsomes assessed as half life at 1 uM preincubated for 3 mins with NADPH and measured up to 60 mins by LC-MS/MS analysis; format: ADME, Microsome; details: time < 63 min
Cytochrome P450 1A2 = Cytochrome P450 1A2 (Homo sapiens, UniProt P05177); experiment: Inhibition of CYP1A2 in human liver microsomes using phenacetin as substrate at 10 uM incubated for 15 mins in presence of NADPH by LC/MS analysis; format: ADME, Microsome; details: 0.25 h
[25] = Plasma protein binding in rat at 2 uM by LC-MS/MS analysis; format: ADME, cell-free; details: read-out: PPB
[26] = Half life in male ICR mouse at 1 mg/kg, iv measured up to 24 hrs by LC-MS/MS analysis; format: ADME, organism-based; details: in vivo
[27] = Clearance in male Sprague-Dawley rat at 1 mg/kg, iv measured up to 24 hrs by LC-MS/MS analysis; format: ADME, organism-based; details: in vivo
[28] = Elimination half life in male ICR mouse lung at 10 mg/kg, iv measured up to 336 hrs by LC-MS/MS analysis; format: ADME, organism-based; details: read-out: beta t1/2 (converted)

Protein cereblon/GTPase KRas (Homo sapiens), P01116+Q96SW2 [G12D], sequence (P01116 whole entry G12D): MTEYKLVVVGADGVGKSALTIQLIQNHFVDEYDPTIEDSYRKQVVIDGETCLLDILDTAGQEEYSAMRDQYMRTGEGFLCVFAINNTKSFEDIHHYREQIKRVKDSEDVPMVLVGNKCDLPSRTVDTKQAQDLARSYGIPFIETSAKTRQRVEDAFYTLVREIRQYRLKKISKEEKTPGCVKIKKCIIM
Protein cereblon/GTPase KRas (Homo sapiens), P01116+Q96SW2 [G12D], sequence (Q96SW2 whole entry partner): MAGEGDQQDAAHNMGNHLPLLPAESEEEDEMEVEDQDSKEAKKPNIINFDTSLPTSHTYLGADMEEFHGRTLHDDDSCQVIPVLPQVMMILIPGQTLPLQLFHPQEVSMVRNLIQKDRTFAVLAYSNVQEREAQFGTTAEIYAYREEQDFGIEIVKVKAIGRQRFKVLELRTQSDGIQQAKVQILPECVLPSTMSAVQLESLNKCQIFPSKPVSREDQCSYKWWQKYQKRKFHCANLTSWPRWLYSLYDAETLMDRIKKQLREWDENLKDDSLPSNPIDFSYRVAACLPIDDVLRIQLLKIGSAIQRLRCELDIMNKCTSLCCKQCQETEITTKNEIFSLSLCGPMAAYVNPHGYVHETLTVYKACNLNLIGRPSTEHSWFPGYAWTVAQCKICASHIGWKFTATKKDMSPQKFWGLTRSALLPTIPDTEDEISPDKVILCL
Protein cereblon/GTPase HRas (Homo sapiens), sequence (P01112 whole entry, looked up): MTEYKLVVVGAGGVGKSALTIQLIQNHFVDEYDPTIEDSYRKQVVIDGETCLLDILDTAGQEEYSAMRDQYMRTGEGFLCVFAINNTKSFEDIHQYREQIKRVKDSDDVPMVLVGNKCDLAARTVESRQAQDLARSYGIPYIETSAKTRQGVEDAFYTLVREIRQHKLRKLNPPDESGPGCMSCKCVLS
Protein cereblon/GTPase HRas (Homo sapiens), sequence (Q96SW2 whole entry, looked up): as the sequence (Q96SW2 whole entry partner) above
Protein cereblon/GTPase KRas (Homo sapiens), sequence (P01116 whole entry, looked up): as the sequence (P01116 whole entry G12D) above, with D12G counted along it
Protein cereblon/GTPase KRas (Homo sapiens), sequence (Q96SW2 whole entry, looked up): as the sequence (Q96SW2 whole entry partner) above
Cytochrome P450 1A2, sequence (P05177 whole entry): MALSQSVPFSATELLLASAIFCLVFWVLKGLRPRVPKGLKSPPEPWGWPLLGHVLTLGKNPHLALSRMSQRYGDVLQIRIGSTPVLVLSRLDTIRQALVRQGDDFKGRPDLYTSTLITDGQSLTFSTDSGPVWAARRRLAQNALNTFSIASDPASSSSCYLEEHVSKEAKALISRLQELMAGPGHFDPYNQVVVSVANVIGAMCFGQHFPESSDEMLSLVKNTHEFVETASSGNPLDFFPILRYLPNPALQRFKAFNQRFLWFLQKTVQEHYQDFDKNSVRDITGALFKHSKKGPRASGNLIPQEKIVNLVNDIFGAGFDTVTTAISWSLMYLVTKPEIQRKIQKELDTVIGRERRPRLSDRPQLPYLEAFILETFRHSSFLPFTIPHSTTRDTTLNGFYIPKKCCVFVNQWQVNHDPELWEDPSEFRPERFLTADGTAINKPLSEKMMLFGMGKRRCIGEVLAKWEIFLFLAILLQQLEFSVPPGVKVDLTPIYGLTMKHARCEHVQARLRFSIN

## C#Cc1c(F)ccc2cc(O)cc(-c3ncc4c(N5CC6CCC(C5)N6)nc(OCC5(CN6CCC7(CC6)CC(N6CCC(c8cc9c(cc8F)c(N8CCC(=O)NC8=O)nn9C)CC6)C7)CC5)nc4c3F)c12
[1]
  Activity: 92%
[2]
  Activity: Active
[3]
  IC50: 2.7 nM
[4]
  Activity: inactive
[5]
  Activity: inactive
ASPC1 [6]
  Activity: inactive
ASPC1 [7]
  Ratio IC50: >10
SNU-407
  Activity: Active; Compound Showed Stronger Antiproliferative Activity Compared To Mrtx1133
[8]
  Activity: Active
[9]
  inhibition in vivo at 0.3 mg/kg: 93%
[10]
  inhibition in vivo at 1 mg/kg: 98%
[11]
  inhibition in vivo at 3 mg/kg: 42.9%
[12]
  Activity: Non-toxic
[13]
  inhibition in vivo at 1 mg/kg: 74.8%
[14]
  Activity: Non-toxic
[15]
  Activity: Non-toxic
[16]
  concentration at 6 h: 270 ng/mL
[17]
  Activity: 87.7%
[18]
  Activity: 6.1%
[19]
  Activity: > 100%
[20]
  concentration at 168 h: 719 ng/g
[21]
  half-life at 1 µM: 7.22 h
[22]
  half-life at 1 µM: 7.22 h
[23]
  half-life at 1 µM: 7.22 h
[24]
  half-life at 1 µM: 2.57 h
Cytochrome P450 1A2
  inhibition (INH): Not_active
[25]
  fraction unbound at 2 µM: < 0.05
[26]
  half-life: 8.82 h
[27]
  clearance: 33 mL/min/kg
[28]
  half-life: 105 h
